Laboratory results: patent US20250099548A1, “PHARMACEUTICAL COMPOSITION FOR PREVENTING OR TREATING DEGENERATIVE BRAIN DISEASES, CONTAINING GLUCAGON-LIKE PEPTIDE-1 AND INTERLEUKIN-1 RECEPTOR ANTAGONIST” (GI INNOVATION, INC., priority 2022, published 2025)

Columns and labels:
Format in all cases: in vivo, mouse
Tg-APP/PS1 mice [1] = test: Water maze test; settings: Example 1
Procedure: (§1) The test substance was prepared by diluting GI210B1 obtained in Preparation Example 1 in saline, and it was intraperitoneally administered to 6.5-month-old Tg-APP/PS1 mice at a concentration of 1.2 mg/kg a total of 4 times for 2 weeks (FIG. 10).
(§2) In the Tg-APP/PS1 mice intraperitoneally administered with GI210B1 at 6.5 months of age in Example 1.1 above, behavioral characteristics of cognitive function were evaluated at 7.5 to 8.0 months of age. In order to evaluate the behavioral characteristics of cognitive function, a novel object recognition test (NOR test), a passive avoidance test, and a water maze test were performed. At that time, the three experiments for behavioral evaluation were performed according to a method known in the art.
The water maze test is a cognitive behavior evaluation experiment conducted to measure spatial perception learning ability and memory dependent on the hippocampus area of the brain. […]
In addition, a hidden platform test was conducted on the 6th day. The hidden platform of the water maze was removed, and then the mouse was placed in the water maze and the location the mouse stayed for 60 seconds was recorded. At that time, the time and location that the mouse stayed in the four quadrants of the water maze for 60 seconds in the absence of a hidden platform were recorded. […]

Tg-APP/PS1 mice [2] = test: Aβ plaque deposition in brain tissue, thioflavin S staining; settings: 4 times for 2 weeks
Procedure: Accordingly, in order to confirm the effect of treating Alzheimer's disease by intraperitoneal administration of GI210B1, the Tg-APP/PS1 mice administered with GI210B1 (Tg+GI210B1) and the Tg-APP/PS1 mice (Tg+Veh), a control group, were sacrificed, and then the brain tissue was extracted, and Aβ plaques were stained using thioflavin S, and then the degree of Aβ plaque deposition in the parietal cortex, hippocampus, and piriform cortex regions was analyzed.
Specifically, for immunohistochemical analysis using thioflavin S staining, the brain was collected after perfusion for the mouse with 4% paraformaldehyde, and then the brain was further fixed with 4% paraformaldehyde overnight at 4° C. The brain tissue sections were prepared by cutting the fixed brain tissue to a thickness of […] using a vibratome. The prepared brain tissue sections were stained using thioflavin S by a known method. At that time, the stained image was analyzed using MetaMorph Microscopy Automation & Image Analysis software (Molecular device). The amount of plaque was quantified and expressed as the number of plaques per unit area and the sum of the plaque areas.
The Tg-APP/PS1 mice were prepared in the same manner as in Example 1.1 above. The test substance was prepared by diluting GI210B1, GI210B1C1, or GI210B1CN obtained in Preparation Example 1 to 3 in saline. Thereafter, the prepared test substances were each intraperitoneally administered to the 6.5-month-old Tg-APP/PS1 mice at a concentration of 1.2 mg/kg, 0.7778 mg/kg, and 1.1745 mg/kg a total of 4 times for 2 weeks (FIG. 23).
In the same manner as in Example 1.3 above, the mice were sacrificed, and then the brain tissue was extracted, and the degree of Aβ plaque deposition in the parietal cortex, hippocampus, and piriform cortex regions was analyzed using thioflavin S, which stains Aβ plaques.
The Tg-APP/PS1 mice were prepared in the same manner as in Example 1.1 above. The test substance was prepared by diluting GLP-1 (Peptron), GI210B1C1 obtained in Preparation Example 2 and GI212B2 obtained in Preparation Example 4, anakinra (Amgen, Kineret-inj), and the anti-IL-1 antibody (BioXcell, BE0246) in saline to concentrations of 0.0371 mg/kg, 1.1745 mg/kg, 1.8722 mg/kg, 0.2041 mg/kg, and 1.77 mg/kg, respectively. Thereafter, the prepared test substances were intraperitoneally administered to the 6.5-month-old Tg-APP/PS1 mice a total of 4 times for 2 weeks, as shown in Table 6 below (FIG. 30). […]
In the same manner as in Example 1.3 above, the mice from each group were sacrificed, and then the brain tissue was extracted, and the degree of Aβ plaque deposition in the parietal cortex, hippocampus, and piriform cortex regions was analyzed using thioflavin S, which stains Aβ plaques.

Tg-APP/PS1 mice [3] = test: Passive avoidance test; settings: Example 1; 72 and 120 hours after the shock; 1.2 mg/kg intraperitoneal, 4 times for 2 weeks
Procedure: as §1, §2
The passive avoidance test is a test to confirm fear/anxiety memory by associating spatial contextual cues and shock in mice for long periods of 24 hours, 72 hours, and 120 hours. The passive avoidance test is a cognitive behavior evaluation experiment conducted to confirm memories associated with spatial and contextual cues, specifically fear and anxiety. […]
Specifically, mice have a tendency to prefer a dark place. […] The mice prepared in Example 1.1 were learned in the same manner as above, and the time for each step was measured.

GI210B1: fusion protein dimer comprising GLP-1 (SEQ ID NO: 2), IgG4 Fc domain and IL-1Ra; SEQ ID NO: 10
time in target quadrant, hidden platform test (Tg-APP/PS1 mice [1]; 6th day, platform removed, 60 seconds): recognized for a longer time compared to the control group (Tg+Veh)
time taken for the mouse to learn and find the location of the hidden platform (spatial perception training) (Tg-APP/PS1 mice [1]; training twice a day for 5 days, 1.2 mg/kg intraperitoneal, 4 times for 2 weeks): somewhat slower than that of the normal group, but faster than that of the control group (Tg+Veh)
amount of plaque deposited in the brain (number of plaques per unit area and sum of plaque areas) (Tg-APP/PS1 mice [2]; Example 1, parietal cortex, hippocampus, piriform cortex, GI210B1 1.2 mg/kg intraperitoneal): tended to be reduced compared to the control group
amount of plaque deposited in the brain (number of plaques per unit area and sum of plaque areas) (Tg-APP/PS1 mice [2]; Example 2, GI210B1, GI210B1C1, GI210B1CN at 1.2, 0.7778, 1.1745 mg/kg intraperitoneal): statistically significantly reduced compared to the control group (Tg+Veh)
amount of plaque deposited in the brain (number of plaques per unit area and sum of plaque areas) (Tg-APP/PS1 mice [2]; Example 2, GI210B1, GI210B1C1, GI210B1CN at 1.2, 0.7778, 1.1745 mg/kg intraperitoneal, listed as G2101B1): tended to be reduced
moving to the dark chamber after foot shock (Tg-APP/PS1 mice [3]): had a tendency not to move to the dark chamber
